Data as given in article PMC2361347 (British Journal of Cancer, 2006).
Read-outs that look alike come from different tables or passages of the source.

What was measured:
[1] = system: newly diagnosed patients in the chronic phase of CML; conditions: cited from earlier work; for annual rate of progression (resulting in death): IRIS study
[2] = system: Ba/F3 cells transfected to express Bcr-Abl Wild-type p210+IL-3; assay: cells; conditions: Mus musculus, BaF3, read-out: Proliferation IC50
[3] = system: Ba/F3 cells transfected to express Bcr-Abl Wild-type p210; assay: cells; conditions: Mus musculus, BaF3, read-out: Proliferation IC50
[4] = system: Ba/F3 cells transfected to express Bcr-Abl M237I (p185); assay: cells; conditions: Mus musculus, BaF3, read-out: Proliferation IC50
[5] = system: imatinib-resistant BCR-ABL mutants; conditions: number of mutants / mutants tested; Table 1
T315I mutant = conditions: Table 1
[6] = system: Ba/F3 cells transfected to express Bcr-Abl L248V (p185); assay: cells; conditions: Mus musculus, BaF3, read-out: Proliferation IC50
[7] = system: Ba/F3 cells transfected to express Bcr-Abl G250A (p185); assay: cells; conditions: Mus musculus, BaF3, read-out: Proliferation IC50
[8] = system: Ba/F3 cells transfected to express Bcr-Abl G250E (p185); assay: cells; conditions: Mus musculus, BaF3, read-out: Proliferation IC50
[9] = system: Ba/F3 cells transfected to express Bcr-Abl G250V (p185); assay: cells; conditions: Mus musculus, BaF3, read-out: Proliferation IC50
[10] = system: Ba/F3 cells transfected to express Bcr-Abl Y253H (p185); assay: cells; conditions: Mus musculus, BaF3, read-out: Proliferation IC50
[11] = system: Ba/F3 cells transfected to express Bcr-Abl E255D (p185); assay: cells; conditions: Mus musculus, BaF3, read-out: Proliferation IC50
[12] = system: Ba/F3 cells transfected to express Bcr-Abl E255K (p185); assay: cells; conditions: Mus musculus, BaF3, read-out: Proliferation IC50
[13] = system: Ba/F3 cells transfected to express Bcr-Abl E255K (p210); assay: cells; conditions: Mus musculus, BaF3, read-out: Proliferation IC50
[14] = system: Ba/F3 cells transfected to express Bcr-Abl E255V (p210); assay: cells; conditions: Mus musculus, BaF3, read-out: Proliferation IC50
[15] = system: Ba/F3 cells transfected to express Bcr-Abl E275K (p185); assay: cells; conditions: Mus musculus, BaF3, read-out: Proliferation IC50
[16] = system: Ba/F3 cells transfected to express Bcr-Abl E281K (p185); assay: cells; conditions: Mus musculus, BaF3, read-out: Proliferation IC50
[17] = system: Ba/F3 cells transfected to express Bcr-Abl K285N (p185); assay: cells; conditions: Mus musculus, BaF3, read-out: Proliferation IC50
[18] = system: Ba/F3 cells transfected to express Bcr-Abl E292K (p210); assay: cells; conditions: Mus musculus, BaF3, read-out: Proliferation IC50
[19] = system: Ba/F3 cells transfected to express Bcr-Abl F311V (p185); assay: cells; conditions: Mus musculus, BaF3, read-out: Proliferation IC50
[20] = system: Ba/F3 cells transfected to express Bcr-Abl T315I (p210); assay: cells; conditions: Mus musculus, BaF3, read-out: Proliferation IC50
[21] = system: Ba/F3 cells transfected to express Bcr-Abl F317C (p185); assay: cells; conditions: Mus musculus, BaF3, read-out: Proliferation IC50
[22] = system: Ba/F3 cells transfected to express Bcr-Abl F317L (p210); assay: cells; conditions: Mus musculus, BaF3, read-out: Proliferation IC50
[23] = system: Ba/F3 cells transfected to express Bcr-Abl F317V (p185); assay: cells; conditions: Mus musculus, BaF3, read-out: Proliferation IC50
[24] = system: Ba/F3 cells transfected to express Bcr-Abl E355A (p185); assay: cells; conditions: Mus musculus, BaF3, read-out: Proliferation IC50
[25] = system: Ba/F3 cells transfected to express Bcr-Abl E355G (p185); assay: cells; conditions: Mus musculus, BaF3, read-out: Proliferation IC50
[26] = system: Ba/F3 cells transfected to express Bcr-Abl F359C (p185); assay: cells; conditions: Mus musculus, BaF3, read-out: Proliferation IC50
[27] = system: Ba/F3 cells transfected to express Bcr-Abl F359V (p185); assay: cells; conditions: Mus musculus, BaF3, read-out: Proliferation IC50
[28] = system: Ba/F3 cells transfected to express Bcr-Abl A380S (p185); assay: cells; conditions: Mus musculus, BaF3, read-out: Proliferation IC50
[29] = system: Ba/F3 cells transfected to express Bcr-Abl L387F (p185); assay: cells; conditions: Mus musculus, BaF3, read-out: Proliferation IC50
[30] = system: Ba/F3 cells transfected to express Bcr-Abl M388L (p185); assay: cells; conditions: Mus musculus, BaF3, read-out: Proliferation IC50
[31] = system: Ba/F3 cells transfected to express Bcr-Abl F486S (p210); assay: cells; conditions: Mus musculus, BaF3, read-out: Proliferation IC50
KBM5 = system: KBM5; design: method as in Golemovic et al, 2005; conditions: KBM5 cell line; ref Golemovic et al, 2005; cited from earlier work
KBM7 = system: KBM7; design: method as in Golemovic et al, 2005; conditions: KBM7 cell line; ref Golemovic et al, 2005; cited from earlier work
[32] = design: method as in Kantarjian et al, 2006; conditions: patients receiving 400 mg b.i.d.; ref Kantarjian et al, 2006; cited from earlier work
[33] = system: imatinib-resistant CML mouse models; design: method as in Weisberg et al, 2005; conditions: ref Weisberg et al, 2005; cited from earlier work
[34] = system: imatinib-resistant CML patients and Ph+ ALL patients; conditions: cited from earlier work; for CML patients who have responded: early-phase clinical findings
[35] = system: mice injected with BCR-ABL-transformed haematopoietic cell lines or primary marrow cells; conditions: ref Weisberg et al, 2005; cited from earlier work
[36] = newly diagnosed chronic-phase patients, ref Simonsson, 2005
[37] = accelerated phase CML patients, ref Kantarjian et al, 2006
[38] = blast-phase CML patients, ref Kantarjian et al, 2006
[39] = chronic phase CML patients, ref Kantarjian et al, 2006

Cc1ccc(NC(=O)c2ccc(CN3CCN(C)CC3)cc2)cc1Nc1nccc(-c2cccnc2)n1 [Imatinib]
annual rate of progression (resulting in death) ([1]; after 1 year of therapy): 3.4%
annual rate of progression (resulting in death) ([1]; after 2 years of therapy): 7.5%
annual rate of progression (resulting in death) ([1]; after 3 years of therapy): 4.8%
annual rate of progression (resulting in death) ([1]; after 4 years of therapy): 1.5%
complete cytogenetic responses [1, 36]: 86%
complete haematologic remissions [1, 36]: 98%

Cc1cn(-c2cc(NC(=O)c3ccc(C)c(Nc4nccc(-c5cccnc5)n4)c3)cc(C(F)(F)F)c2)cn1 [AMN107]
IC50 [2]: > 10000 nM
IC50 [3]: 25 ± 1 nM
IC50 [4]: 43 ± 8.7 nM
imatinib-resistant BCR-ABL mutants against which activity is maintained [5]: 32/33
activity against the T315I mutant (T315I mutant): no significant activity
IC50 [6]: 102 ± 13 nM
IC50 [7]: 65 ± 5.6 nM
IC50 [8]: 145 ± 32 nM
IC50 [9]: 19 ± 1.4 nM
IC50 [10]: 700 ± 116 nM
IC50 [11]: 27 ± 3.1 nM
IC50 [12]: 308 ± 42 nM
IC50 [13]: 548 ± 72 nM
IC50 [14]: 791 ± 67 nM
IC50 [15]: 44 ± 17.1 nM
IC50 [16]: 40 ± 9.8 nM
IC50 [17]: 57 ± 12 nM
IC50 [18]: 81 ± 8 nM
IC50 [19]: 155 ± 31 nM
IC50 [20]: > 10000 nM
IC50 [21]: 20 ± 3.1 nM
IC50 [22]: 91 ± 6.5 nM
IC50 [23]: 28 ± 4 nM
IC50 [24]: 35 ± 6.7 nM
IC50 [25]: 47 ± 8 nM
IC50 [26]: 258 ± 61 nM
IC50 [27]: 161 ± 61 nM
IC50 [28]: 164 ± 27 nM
IC50 [29]: 46 ± 7.2 nM
IC50 [30]: 18 ± 2.6 nM
IC50 [31]: 75 ± 7 nM
times more potent than imatinib (KBM5): 43 times
times more potent than imatinib (KBM7): 60 times
apparent half-life [32]: 15 h
mean peak plasma level [32]: 3.6 µM
mean trough plasma level [32]: 1.7 µM
survival [33]: prolong survival
maximum tolerated dose ([34]; Phase I, 50–1200 mg day−1 for up to 385 days, ref Kantarjian et al, 2006): 600 mg b.i.d.
cytogenetic responses [34, 37]: 48%
haematological responses [34, 37]: 72%
cytogenetic responses [34, 38]: 27%
haematological responses [34, 38]: 39%
cytogenetic responses [34, 39]: 53%
haematological responses [34, 39]: 92%
CML patients who have responded ([34]; early, chronic-phase patients): over 90%
imatinib-resistant Ph+ ALL patients who responded ([34]; of 13 Ph+ ALL patients, ref Kantarjian et al, 2006): Two
CML patients who have responded ([34]; patients with advanced disease): Greater than 70%
survival of mice [35]: prolong the survival
